First: CC(C)OC(=O)N1CCC(c2nc3cc(-c4ccc(-n5cnnn5)cc4F)ccc3o2)CC1
Second: CC(C)n1nc(-c2cnc(N3CCOCC3)nc2-c2ccccc2)ccc1=O
The melting point of the first is lower: 168 to 171 °C for the first, 200 to 202 °C for the second.

`CCCCCCNC(=O)OC1CCN(C(=O)Oc2ccc(Oc3ccc(C)cc3)cc2)CC1` and `O=C(O)Cc1ccc(OCCCN2CCC(c3cn(CC4CC4)c4ccccc34)CC2)cc1` cannot be ordered by melting point: 84 to 85 °C for the first, 83 to 85 °C for the second.

First: Nc1ncc(C#Cc2ccc(Cl)cc2)c(NCCO)n1
Second: CC(C)(OC(=O)CCc1nc(-c2ccc(Cl)cc2)co1)c1ccccc1
The melting point of the first is higher: 197 to 200 °C for the first, 94 to 95 °C for the second.

Compared with `Cc1cc(O)c(S(C)(=O)=O)cc1C(=O)N=C(N)N`, `Cc1cc(N)c([N+](=O)[O-])cc1OS(C)(=O)=O` is lower in melting point: > 260 °C for the first, 128 °C for the second.

First: CC(C)(C)OC(=O)N1CCc2cc(NC(=O)NCc3ccc4c(c3)CN(C3CCC(=O)NC3=O)C4=O)ccc2C1 (stereo unspecified)
Second: Cc1cccc(NC(=O)NC2N=C(C3CC3)c3cccc(C)c3N(CC(=O)N3CCCCCCC3)C2=O)c1 (stereo unspecified)
The melting point of the first is higher: 230 to 232 °C for the first, 178 to 179 °C for the second.

First: COC1(OC)CC2CC[C@@]1(CS(=O)(=O)N(C(C)C)C(C)C)C2(C)C
Second: COc1ccc2c(c1)CCC1C2CCC2(C)C(=NN(C)C)C(C)CC12 (stereo unspecified)
The melting point of the first is lower: 73.8 to 74.6 °C for the first, 122 to 124 °C for the second.

Compared with `N#Cc1cc2sccc2nc1Cl`, `Cc1ccc2c(Cl)c(Cl)ccc2n1` is lower in melting point: 222 to 224 °C for the first, 84 to 85 °C for the second.

Compared with `O=C1c2ccccc2C(=O)N1CCc1ccc2c(c1)OCO2`, `CNc1cc(N)c(CCCN)c2c1C(=O)c1ccccc1C2=O` is higher in melting point: 139 to 140 °C for the first, 142 °C for the second.

First: C#CCOc1ccc(CCNC(=O)[C@@H](O)c2ccccc2)cc1OC
Second: COC(=O)/C=C(\CCCCc1ccccc1)Sc1ccc(OC)c(OC)c1
The melting point of the first is higher: 81 to 83 °C for the first, 53 to 55 °C for the second.

First: CCc1cc2c(ccc(=O)n2Cc2ccc(C(=O)OC)cc2)c(CC)n1
Second: CON(C)C(=O)Nc1ccc(OCCc2ccc(C)cn2)cc1
The melting point of the first is higher: 128 to 130 °C for the first, 110 to 112 °C for the second.

First: CC(=O)N(CCOc1ccc(CC2SC(=O)NC2=O)cc1)c1ncccn1 (stereo unspecified)
Second: O=C(O)Cc1ccc(OCc2ccccc2)cc1[N+](=O)[O-]
The melting point of the first is lower: 137 °C for the first, 145 to 152 °C for the second.

Compared with `CCOC(=O)c1cn(Cc2cccnc2)nc1OCc1cccnc1`, `CC#CCOc1ccc(S(=O)(=O)N(C)c2c(C(=O)OCC)cnc3c2c(C)nn3C)cc1` is lower in melting point: 120 to 121 °C for the first, 50 to 52 °C for the second.

First: COc1cccc2c1C13CCNC(C2)C1(O)CCC(=O)C3 (stereo unspecified)
Second: COc1cc(C(C)=O)ccc1OC1CCCC1
The melting point of the first is higher: 137 to 139 °C for the first, 55 to 56 °C for the second.

First: CC(=S)NC[C@H]1CN(c2ccc(-c3nc(Cn4cccn4)cs3)c(F)c2)C(=O)O1
Second: CCCOc1ccccc1C1=NC(=O)C2=NC=NC2=N1
The melting point of the first is lower: 166 to 168 °C for the first, 254 to 259 °C for the second.

First: CCOC(=O)N1CCC(NC(=S)Nc2cncnc2NCc2ccco2)CC1
Second: CC(C)(C)Oc1cccc(C(=O)Nc2ccc(OCCN3CCOCC3)c3ccccc23)c1
The melting point of the first is higher: 193 °C for the first, 135 to 136 °C for the second.

First: C=C(C)c1ccc(O)c(-n2nc3ccccc3n2)c1
Second: Cc1cccc(-c2nccc(O)n2)c1
The melting point of the first is lower: 124 °C for the first, 148 to 150 °C for the second.

First: O=C1C=CC(OC2CCCCC2)N1 (stereo unspecified)
Second: CC(C)(C)NC(=O)C1CCC(c2ccccc2)N1C(=O)CNC(=O)OC(C)(C)C (stereo unspecified)
The melting point of the first is lower: 65 to 66 °C for the first, 117 °C for the second.

`CCN(CC(=O)O)Cc1cc(/C(=N\O)c2cccc(Br)c2)ccc1[N+](=O)[O-]` and `CCOC(=O)C(C(=O)OCC)c1cccc(C(=O)c2ccccc2)c1[N+](=O)[O-]` cannot be ordered by melting point: 131 °C for the first, 130 to 131 °C for the second.

First: O=C(NCc1cc(C(F)(F)F)cc(C(F)(F)F)c1)c1c(-c2ccccc2)c2ccccc2[nH]c1=O
Second: CC(C)c1c(C=O)c(-c2ccccc2)c2c3ccccc3ccn12
The melting point of the first is higher: 251 to 252 °C for the first, 134 to 136 °C for the second.

First: O=C(Nc1ccc2nc(CN3CCCC3)ccc2c1)c1ccc(-c2ccc(F)cc2)nc1
Second: C#CCN(Cc1ccc2nc[nH]c(=O)c2c1)c1ccc(C(=O)NCc2cccc([N+](=O)[O-])c2)cc1
The melting point of the first is higher: 210 °C for the first, 93 to 96 °C for the second.

First: NNC(=O)N(O)C1c2ccccc2Oc2ccccc21
Second: OCCOCCn1c2ccccc2c2ccccc21
The melting point of the first is higher: 186 °C for the first, 80 to 81 °C for the second.

First: NC(=O)Cc1nc(C(=O)c2ccccc2)no1
Second: O=C(NC/C=C/c1ccccc1)c1cccs1
The melting point of the first is higher: 156 to 158 °C for the first, 110 °C for the second.

First: CCCCSc1cn(C)cc(-c2cccc(C(F)(F)F)c2)c1=O
Second: Cc1cc(N(C)Cc2oc(-c3ccc(C(F)(F)F)cc3)nc2C)ccc1OCC(=O)O
The melting point of the first is lower: 109 to 110 °C for the first, 156 to 157 °C for the second.

First: CP(=O)(O)c1ccc(C(=O)O)cc1
Second: CCOC(=O)CC1=COc2ccc(O)cc2O1
The melting point of the first is higher: 238 to 240 °C for the first, 160 °C for the second.

First: Cc1cc(C)c2ncc(NC(=O)Nc3cc(C(C)C)c(O)c(C(C)C)c3)c(-c3ccccc3Cl)c2c1
Second: Cc1cc(C)c(Nc2nc(C)ncc2S(=O)(=O)c2ccc(N3CCOCC3)cc2)c(C)c1
The melting point of the first is lower: 194 to 196 °C for the first, 221 to 223 °C for the second.

Compared with `CS(=O)(=O)c1ccc(/C=C/c2nc3ccccc3n2-c2ccccn2)cc1`, `O=C1Nc2ccccc2CCC1Oc1ccc([N+](=O)[O-])c(OCc2ccccc2)c1` (stereo unspecified) is higher in melting point: 152 to 154 °C for the first, 188 to 189 °C for the second.

Compared with `O=c1cc2c(nn1-c1ccc(Cl)cc1)-c1cc(Br)sc1CCC2`, `COc1cc2c(cc1-c1ccccc1)CCN=C2C1(c2ccccc2Cl)CCC1` is higher in melting point: 143 to 144 °C for the first, 149 to 152 °C for the second.

Compared with `CCN(CC)C(=O)c1cc(OC)cc(OC)c1-c1ccccc1`, `CCOc1ccccc1O[C@@H](c1ccccc1)[C@@H](CO[Si](C)(C)C)OS(C)(=O)=O` (racemic) is lower in melting point: 117 to 118 °C for the first, 80 to 82.5 °C for the second.

Compared with `Cc1nc(CC2OC(CO)C(O)C2O)n2nc(N(C)C)ccc12` (stereo unspecified), `CCOC(=O)c1c(SCc2ccc(OC)cc2)nc2c(F)c(F)c(F)cc2c1O` is lower in melting point: 231 to 232 °C for the first, 174 to 176 °C for the second.

First: CC(Sc1cc(C(C)(C)C)c(O)c(C(C)(C)C)c1)C(=O)CC(C)(O)C(C)Sc1cc(C(C)(C)C)c(O)c(C(C)(C)C)c1 (stereo unspecified)
Second: CC(C)(C)c1cc(C2=NNC(=O)CC2)cc(C(C)(C)C)c1O
The melting point of the first is lower: 123 to 128 °C for the first, 200 to 203 °C for the second.

First: CSCCC(NCc1cc(Br)cc(Br)c1N)C(=O)O (stereo unspecified)
Second: CC(C)c1nc(C(C)C)c(CSc2c(F)c(F)cc(F)c2F)c(-c2ccc(F)cc2)c1CO
The melting point of the first is higher: 212 °C for the first, 109 to 110 °C for the second.

Compared with `O=c1[nH]cnc2c(Br)scc12`, `NC(=S)c1cnn(-c2c(Cl)cc(C(F)(F)F)cc2Cl)n1` is lower in melting point: 226 to 229 °C for the first, 214 to 218 °C for the second.

Compared with `CC(CC(=O)O)C(=O)N1CCC[C@H]1C(=O)O` (stereo partly specified), `Cc1c(C)c2c(c(C)c1O)CCC(C)(CC(=O)O)O2` (stereo unspecified) is higher in melting point: 132 to 133 °C for the first, 168 to 171 °C for the second.

First: COc1cc2c(=O)n(C(C)CN(C)C)c3c4cc5c(cc4ncc3c2cc1OC)OCO5 (stereo unspecified)
Second: CCCC1CCC(c2cc(F)c(C(F)(F)Oc3ccc(-c4cc(F)c(C(F)(F)F)c(F)c4)c(F)c3)c(F)c2)OC1 (stereo unspecified)
The melting point of the first is higher: 186 to 187 °C for the first, 95 °C for the second.

First: CCOC(C)n1c(CCc2cccc(O)c2)nc(-c2ccccc2)c1-c1ccccc1 (stereo unspecified)
Second: CC1(C)C=C(c2ccc(C(=O)N3Cc4cccn4Cc4ccccc43)cc2)CC(C)(C)C1
The melting point of the first is higher: 166 to 167 °C for the first, 142 to 143 °C for the second.

Molecule `NS(=O)(=O)c1cccc2c1COC2` has a melting point of 153 to 158 °C.

From a melting point compilation (Tetko et al.; mined from patent text by program, amines drawn as free bases though some values may be those of a salt)
